Reference: patent publication US7816397B2, “Phenylcarboxylic acid derivatives and use thereof for the treatment of diabetes” (Merck Patent GmbH, priority 2004, dated 2010)

Experiments:
[1] = system: INS-1 cells; assay: Insulin secretion test on INS-1 cells; assay type: cell-based; settings: Rattus norvegicus, INS1, test compound concentration 10^−5 M, read-out: INS-1 Test concentration 10^−5 M % (Sec INS, percentage of insulin secretion)
Text: Insulin Secretion Test on INS-1 Cells
According to the method described in Endocrinology, 1992 vol. 130 (1) pp. 167-178
Sec INS corresponds to the percentage of insulin secretion.
C corresponds to the concentration of test compound according to the invention.

[2] = system: n0-STZ/sucrose rats; assay: In vivo oral glucose tolerance test (OGTT) after daily treatment for 7 days; set-up: species or system Rats Wistar; settings: 100 mg/kg/day for 7 days
Description: To evaluate the effect of 2-{2-[4-(4-chlorobenzenesulfonylamino)phenyl]-ethyl}benzoic acid (compound 522) on the glucose tolerance of n0-STZ/sucrose rats, after a daily treatment for 7 days.
Rats Wistar (origin: Charles River, France), which received an injection of streptozotocin (100 mg/kg i.v.) on the day of birth. On their arrival at the Research Centre, at seven weeks old:
• 9 rats were placed on a standard diet (A04, SAFE). • 19 rats were placed on a sucrose-rich diet (58% sucrose, SAFE).
After 2 months on the diet, the rats on the sucrose diet were divided randomly into 2 subgroups (control diabetic, treated diabetic).
The three groups were then treated daily for 7 days, with excipient (0.5% methylcellulose solution) for the control group (healthy animals) and the diabetic control group, or with product (compound 522, 100 mg/kg/day) for the third group.
Glucose Tolerance Test (OGTT):
After treatment for 7 days, the animals were fasted for 3 hours before the start of the test. Samples were taken from the tail of the conscious rats. The first blood sample was taken 10 minutes before the administration of glucose (2 g/kgbody weight/oral route). Blood was then taken 10, 20, 30, 45, 60, 90 and 120 minutes after the administration of glucose.
The glucose tolerance was evaluated by means of the ΔAUC glc, which represents the cumulative increase in glycaemia above the basal value over the 120 minutes of the test.
The insulin response to glucose was estimated by means of the ΔAUC Ins, which represents the cumulative increase in insulinaemia above the basal value over the 120 minutes of the test.

[3] = system: isolated islets of Langerhans; assay: Insulin secretion test on islets isolated from rats (static incubation, stimulation factor); assay type: cell-based; settings: 90 minutes incubation, glucose 2.8 mM or 8 mM (not given), stimulates if factor >= 130%; for Isolated islets 10^−5 M (stimulation factor of insulin secretion): compound 10^−5 M; for Isolated islets 10^−7 M (stimulation factor of insulin secretion): compound 10^−7 M
Description: Insulin Secretion Test on Islets Isolated from Rats
The effect of the compounds on insulin secretion as a function of the glucose concentration was tested, in vitro, in isolated islets of Langerhans in static incubation.
The islets Langerhans obtained by digestion of exocrine pancreatic tissue with collagenase, followed by purification on a Ficoll gradient, are incubated for 90 minutes in the presence of two concentrations of glucose (2.8 mM or 8 mM), in the presence or absence of the chemical compound. The insulin secretion is assayed by RIA in the incubation medium.
The potential of the various chemical compounds to stimulate insulin secretion is estimated by calculating the stimulation factor*.
A compound stimulates insulin secretion if this factor is greater than or equal to 130% for a given dose of glucose.
G=insulin secretion (pmol/min. islet) in the presence of glucose alone
G+P=insulin secretion (pmol/min. islet) in the presence of the same concentration of glucose and of the test compound.

SMILES | activity at 10 µM [1] | also measured
O=C(O)c1ccccc1CCCCCc1ccccc1NS(=O)(=O)c1ccccc1F [Compound 152] | 202% | 
CCC(C)(C)c1ccc(S(=O)(=O)Nc2ccccc2CCc2ccccc2C(=O)O)cc1 [Compound 654] | 148% | 
Cc1ccc(S(=O)(=O)Nc2ccccc2CCCCCc2ccccc2C(=O)O)c(C)c1 [Compound 151] | 190% | 
Cc1cc(C)c(S(=O)(=O)Nc2ccccc2CCCc2ccccc2C(=O)O)c(C)c1 [Compound 121] | 184% | 
Cc1ccc(S(=O)(=O)Nc2ccccc2CCCCCc2ccccc2C(=O)O)cc1 [Compound 144] | 191% | 
O=C(O)c1ccccc1CCc1ccccc1NS(=O)(=O)c1ccc(S(=O)(=O)c2ccccc2)s1 [Compound 650] | 139% | 
O=C(O)c1ccccc1CCc1ccc(NS(=O)(=O)c2ccc(Cl)cc2)cc1 [Compound 522, 2-{2-[4-(4-chlorobenzenesulfonylamino)phenyl]-ethyl}benzoic acid] |  | ΔAUC insulin, treated versus diabetic controls (in words) ([2]; OGTT 120 minutes): unchanged; ΔAUC glucose down by, treated rats compared with the diabetic controls ([2]; OGTT glucose 2 g/kg oral, 120 minutes, significant p<0.05): 21%; ΔAUC insulin (cumulative increase in insulinaemia above the basal value) ([2]; treated rats, OGTT 120 minutes, diabetic controls 11417+/−1440): 14494 ± 665 pmol·min; ΔAUC glucose (cumulative increase in glycaemia above the basal value) ([2]; treated rats, OGTT 120 minutes, diabetic controls 33306+/−1403): 26438 ± 2255 mg·min/dL
Cc1ccc(S(=O)(=O)Nc2ccccc2CCCc2ccccc2C(=O)O)c(C)c1 [Compound 109] | 162% | 
CCCCc1ccc(S(=O)(=O)Nc2ccccc2CCc2ccccc2C(=O)O)cc1 [Compound 642] | 140% | 
O=C(O)c1ccccc1CCCCCc1ccccc1NS(=O)(=O)c1cccc2cccnc12 [Compound 168] | 256% | Isolated islets 10^−5 M (stimulation factor of insulin secretion) [3]: +236%; Isolated islets 10^−7 M (stimulation factor of insulin secretion) [3]: +169%
COc1cc(C)c(S(=O)(=O)Nc2ccccc2CCCCCc2ccccc2C(=O)O)c(C)c1C [Compound 158] | 182% | Isolated islets 10^−5 M (stimulation factor of insulin secretion) [3]: +166%; Isolated islets 10^−7 M (stimulation factor of insulin secretion) [3]: +135%
N#Cc1ccccc1S(=O)(=O)Nc1ccccc1CCc1ccccc1C(=O)O [Compound 655] | 147% | 
O=C(O)c1ccccc1CCc1ccccc1NS(=O)(=O)/C=C/c1ccccc1 [Compound 639] | 144% | 
CN(C)c1cccc2c(S(=O)(=O)Nc3ccccc3CCCCCc3ccccc3C(=O)O)cccc12 [Compound 159] | 269% | 
CC(C)c1ccc(S(=O)(=O)Nc2ccccc2CCCCCc2ccccc2C(=O)O)cc1 [Compound 164] | 180% | 
CCS(=O)(=O)Nc1ccccc1CCCCCc1ccccc1C(=O)O [Compound 157] | 203% | 
O=C(O)c1ccccc1CCCc1ccccc1NS(=O)(=O)c1ccc2ccccc2c1 [Compound 117] | 175% | 
